Measured values taken from the supplement of paper PMC10307832.

Key:
Assay in all cases: relative viability (nuclei count vs DMSO), 5 days (fraction); higher = more cells survive
ABC-1 = test system: ABC-1
How it was run: (§1)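 A single step with final 0.05% Triton X-100, 1% formaldehyde and 1 ug/ml Hoechst fixed the cells and stained nuclei 5 days after treatment. Lung cancer cell lines in 1536-well plates had been treated by pin tool the day after seeding with one drug alone or a fixed anchor-drug dose plus five library-drug doses (not always all listed) in √10 steps, and nuclei were counted on 4× images. Relative viability is the ratio of nuclei in treated wells to nuclei in vehicle wells, taken as the median of duplicate plates.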

CAL-12T = test system: CAL-12T
How it was run: as §1

COR-L 105 = test system: COR-L 105
How it was run: as §1

EMC-BAC-2 = test system: EMC-BAC-2
How it was run: as §1

EPLC-272H = test system: EPLC-272H
How it was run: as §1

HCC-15 = test system: HCC-15
How it was run: as §1

HCC-78 = test system: HCC-78
How it was run: as §1

HOP-62 = test system: HOP-62
How it was run: as §1

LXF-289 = test system: LXF-289
How it was run: as §1

NCI-H1666 = test system: NCI-H1666
How it was run: as §1

NCI-H1755 = test system: NCI-H1755
How it was run: as §1

NCI-H1915 = test system: NCI-H1915
How it was run: as §1

NCI-H1975 = test system: NCI-H1975
How it was run: as §1

NCI-H2023 = test system: NCI-H2023
How it was run: as §1

NCI-H2085 = test system: NCI-H2085
How it was run: as §1

NCI-H2126 = test system: NCI-H2126
How it was run: as §1

NCI-H3122 = test system: NCI-H3122
How it was run: as §1

NCI-H322M = test system: NCI-H322M
How it was run: as §1

NCI-H358 = test system: NCI-H358
How it was run: as §1

NCI-H441 = test system: NCI-H441
How it was run: as §1

UMC-11 = test system: UMC-11
How it was run: as §1

## O=c1cc(N2CCOCC2)oc2c(-c3cccc4c3sc3ccccc34)cccc12 + C[C@]1(O)C[C@@H](c2nc(-c3ccc4ccc(-c5ccccc5)nc4c3)c3c(N)nccn32)C1 [Linsitinib] (partner 1 µM)
ABC-1; first compound 0.01 µM
  relative viability: 0.89
ABC-1; first compound 0.03162 µM
  relative viability: 0.717
ABC-1; first compound 0.1 µM
  relative viability: 0.745
ABC-1; first compound 0.3162 µM
  relative viability: 0.618
ABC-1; first compound 1 µM
  relative viability: 0.586
CAL-12T; first compound 0.01 µM
  relative viability: 0.851
CAL-12T; first compound 0.03162 µM
  relative viability: 0.809
CAL-12T; first compound 0.1 µM
  relative viability: 0.842
CAL-12T; first compound 0.3162 µM
  relative viability: 0.873
CAL-12T; first compound 1 µM
  relative viability: 0.879
COR-L 105; first compound 0.01 µM
  relative viability: 0.858
COR-L 105; first compound 0.03162 µM
  relative viability: 0.792
COR-L 105; first compound 0.1 µM
  relative viability: 0.851
COR-L 105; first compound 0.3162 µM
  relative viability: 0.773
COR-L 105; first compound 1 µM
  relative viability: 0.895
EMC-BAC-2; first compound 0.01 µM
  relative viability: 0.822
EMC-BAC-2; first compound 0.03162 µM
  relative viability: 0.867
EMC-BAC-2; first compound 0.1 µM
  relative viability: 0.813
EMC-BAC-2; first compound 0.3162 µM
  relative viability: 0.773
EMC-BAC-2; first compound 1 µM
  relative viability: 0.806
EPLC-272H; first compound 0.01 µM
  relative viability: 0.987
EPLC-272H; first compound 0.03162 µM
  relative viability: 1.17
EPLC-272H; first compound 0.3162 µM
  relative viability: 1.31
EPLC-272H; first compound 1 µM
  relative viability: 1.1
HCC-15; first compound 0.01 µM
  relative viability: 0.786
HCC-15; first compound 0.03162 µM
  relative viability: 0.869
HCC-15; first compound 0.1 µM
  relative viability: 0.936
HCC-15; first compound 0.3162 µM
  relative viability: 0.902
HCC-15; first compound 1 µM
  relative viability: 0.847
HCC-78; first compound 0.01 µM
  relative viability: 0.542
HCC-78; first compound 0.03162 µM
  relative viability: 0.525
HCC-78; first compound 0.1 µM
  relative viability: 0.559
HCC-78; first compound 0.3162 µM
  relative viability: 0.51
HCC-78; first compound 1 µM
  relative viability: 0.53
HOP-62; first compound 0.01 µM
  relative viability: 0.991
HOP-62; first compound 0.03162 µM
  relative viability: 1.12
HOP-62; first compound 0.1 µM
  relative viability: 0.909
HOP-62; first compound 0.3162 µM
  relative viability: 0.933
HOP-62; first compound 1 µM
  relative viability: 0.989
LXF-289; first compound 0.01 µM
  relative viability: 0.983
LXF-289; first compound 0.03162 µM
  relative viability: 0.927
LXF-289; first compound 0.1 µM
  relative viability: 0.978
LXF-289; first compound 0.3162 µM
  relative viability: 0.978
LXF-289; first compound 1 µM
  relative viability: 0.897
NCI-H1666; first compound 0.01 µM
  relative viability: 0.735
NCI-H1666; first compound 0.03162 µM
  relative viability: 0.803
NCI-H1666; first compound 0.1 µM
  relative viability: 0.972
NCI-H1666; first compound 0.3162 µM
  relative viability: 0.776
NCI-H1666; first compound 1 µM
  relative viability: 0.636
NCI-H1755; first compound 0.01 µM
  relative viability: 1.04
NCI-H1755; first compound 0.03162 µM
  relative viability: 0.98
NCI-H1755; first compound 0.1 µM
  relative viability: 1.03
NCI-H1755; first compound 0.3162 µM
  relative viability: 1.03
NCI-H1755; first compound 1 µM
  relative viability: 1.01
NCI-H1915; first compound 0.01 µM
  relative viability: 1.04
NCI-H1915; first compound 0.03162 µM
  relative viability: 1.15
NCI-H1915; first compound 0.1 µM
  relative viability: 0.636
NCI-H1915; first compound 0.3162 µM
  relative viability: 1.1
NCI-H1915; first compound 1 µM
  relative viability: 1.08
NCI-H1975; first compound 0.01 µM
  relative viability: 0.833
NCI-H1975; first compound 0.03162 µM
  relative viability: 0.922
NCI-H1975; first compound 0.1 µM
  relative viability: 0.94
NCI-H1975; first compound 0.3162 µM
  relative viability: 0.929
NCI-H1975; first compound 1 µM
  relative viability: 1
NCI-H2023; first compound 0.01 µM
  relative viability: 0.735
NCI-H2023; first compound 0.03162 µM
  relative viability: 0.66
NCI-H2023; first compound 0.1 µM
  relative viability: 0.603
NCI-H2023; first compound 0.3162 µM
  relative viability: 0.564
NCI-H2023; first compound 1 µM
  relative viability: 0.557
NCI-H2085; first compound 0.01 µM
  relative viability: 0.983
NCI-H2085; first compound 0.03162 µM
  relative viability: 0.914
NCI-H2085; first compound 0.1 µM
  relative viability: 0.933
NCI-H2085; first compound 0.3162 µM
  relative viability: 0.889
NCI-H2085; first compound 1 µM
  relative viability: 0.821
NCI-H2126; first compound 0.01 µM
  relative viability: 0.698
NCI-H2126; first compound 0.03162 µM
  relative viability: 0.664
NCI-H2126; first compound 0.1 µM
  relative viability: 0.691
NCI-H2126; first compound 0.3162 µM
  relative viability: 0.702
NCI-H2126; first compound 1 µM
  relative viability: 0.725
NCI-H3122; first compound 0.01 µM
  relative viability: 1.01
NCI-H3122; first compound 0.03162 µM
  relative viability: 0.977
NCI-H3122; first compound 0.1 µM
  relative viability: 1.12
NCI-H3122; first compound 0.3162 µM
  relative viability: 1.03
NCI-H3122; first compound 1 µM
  relative viability: 0.944
NCI-H322M; first compound 0.01 µM
  relative viability: 0.913
NCI-H322M; first compound 0.03162 µM
  relative viability: 0.915
NCI-H322M; first compound 0.3162 µM
  relative viability: 0.993
NCI-H322M; first compound 1 µM
  relative viability: 0.83
NCI-H358; first compound 0.01 µM
  relative viability: 0.631
NCI-H358; first compound 0.03162 µM
  relative viability: 0.781
NCI-H358; first compound 0.1 µM
  relative viability: 0.731
NCI-H358; first compound 0.3162 µM
  relative viability: 0.812
NCI-H358; first compound 1 µM
  relative viability: 0.736
NCI-H441; first compound 0.01 µM
  relative viability: 0.53
NCI-H441; first compound 0.03162 µM
  relative viability: 0.518
NCI-H441; first compound 0.1 µM
  relative viability: 0.582
NCI-H441; first compound 0.3162 µM
  relative viability: 0.555
NCI-H441; first compound 1 µM
  relative viability: 0.594
UMC-11; first compound 0.01 µM
  relative viability: 1.07
UMC-11; first compound 0.03162 µM
  relative viability: 1.03
UMC-11; first compound 0.1 µM
  relative viability: 1.01
UMC-11; first compound 0.3162 µM
  relative viability: 1.02
UMC-11; first compound 1 µM
  relative viability: 1.06
